The target of the test is human PAD4 (hPAD4) (Homo sapiens (Human), UniProt Q9UM07). The experiment in a line: RFMS Human PAD4 Functional Assay 1. The settings on record: RFMS assay 1; 5 nM hPAD4, 250 μM BAEE substrate, 50 μM calcium, 37° C. Format: biochemical. The essentials:
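Citrullination product read by RapidFire triple-quad MRM against a modified-citrulline internal standard, after TCA stop and 30 min phenyl glyoxal step at 37 °C. Reaction: 250 μM BAEE, 5 nM human PAD4, 90 min at 37 °C, pH 7.5 HEPES buffer with 50 μM calcium and 5 μM TPEN, following 30 min compound–enzyme preincubation (max 50 μM).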

pIC50: −log10 of the molar value.

Among the data in patent publication US12473304B2, “Heterocyclic PAD4 inhibitors” (BRISTOL-MYERS SQUIBB COMPANY, priority 2020, dated 2025) are IC50 values, retold here.

What is called pIC50 is the IC50 on a negative log10 scale, so that one unit is a factor of ten.

human PAD4 (hPAD4), sequence (Q9UM07 whole entry): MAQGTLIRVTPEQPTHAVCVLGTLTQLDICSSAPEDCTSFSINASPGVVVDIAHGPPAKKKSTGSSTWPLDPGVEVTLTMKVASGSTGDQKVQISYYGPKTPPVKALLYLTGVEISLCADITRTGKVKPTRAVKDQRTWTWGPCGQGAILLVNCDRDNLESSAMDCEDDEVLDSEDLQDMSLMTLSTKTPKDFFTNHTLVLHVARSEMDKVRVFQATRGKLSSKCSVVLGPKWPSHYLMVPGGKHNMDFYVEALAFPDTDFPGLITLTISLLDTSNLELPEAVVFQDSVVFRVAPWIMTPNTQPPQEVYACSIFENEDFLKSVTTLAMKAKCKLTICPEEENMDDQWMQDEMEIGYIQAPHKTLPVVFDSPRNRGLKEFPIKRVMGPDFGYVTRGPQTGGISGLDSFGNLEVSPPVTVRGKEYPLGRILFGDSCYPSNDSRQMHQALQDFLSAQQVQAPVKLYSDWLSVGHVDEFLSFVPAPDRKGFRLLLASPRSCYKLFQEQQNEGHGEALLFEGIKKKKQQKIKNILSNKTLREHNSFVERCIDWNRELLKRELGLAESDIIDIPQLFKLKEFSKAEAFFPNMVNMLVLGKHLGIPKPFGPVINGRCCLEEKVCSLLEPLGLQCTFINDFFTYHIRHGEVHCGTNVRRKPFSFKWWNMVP

As to `Cc1c(-c2cc3ccc(-c4ccc5c(c4)C(=O)NC5)cc3n2CC2CC2)nn2cc(C(=O)N3C[C@H](N)C[C@@H](F)C3)ccc12` [Example 96, 6-(2-(6-((3R,5R)-3-Amino-5-fluoropiperidine-1-carbonyl)-3-methylpyrazolo[1,5-a]pyridin-2-yl)-1-(cyclopropylmethyl)-1H-indol-6-yl)isoindolin-1-one], the negative-log IC50 (pIC50) was 6.23.
Then `COC(=O)N(C)C1CCN(c2ccc3cc(-c4nn5cc(C(=O)N6C[C@H](N)C[C@@H](F)C6)ccc5c4C)n(CC4CC4)c3n2)CC1` [Example 325, Methyl N-[1-(2-{6-[(3R,5R)-3-amino-5-fluoropiperidine-1-carbonyl]-3-methylpyrazolo[1,5-a]pyridin-2-yl}-1-(cyclopropylmethyl)-1H-pyrrolo[2,3-b]pyridin-6-yl)piperidin-4-yl]-N-methylcarbamate], with 5.81; and `COc1cc(C(=O)N2CCC[C@@H](N)C2)cn2nc(-c3cc4ccc(-c5cccc(CO)c5)cc4n3CC3CC3)c(C)c12` [Example 227, [3-(2-{6-[(3R)-3-Aminopiperidine-1-carbonyl]-4-methoxy-3-methylpyrazolo[1,5-a]pyridin-2-yl}-1-(cyclopropylmethyl)-1H-indol-6-yl)phenyl]methanol], with 6.02; and `Cc1c(-c2cc3ccc(-c4ccc5[nH]ncc5c4)cc3n2CC2CC2)nn2cc(C(=O)N3CC4CCC3[C@@H]4N)ccc12` (stereo partly drawn) [Example 333, (7R)-2-{2-[1-(Cyclopropylmethyl)-6-(1H-indazol-5-yl)-1H-indol-2-yl]-3-methylpyrazolo[1,5-a]pyridine-6-carbonyl}-2-azabicyclo[2.2.1]heptan-7-amine], with 7.70.
Then `CNC(=O)c1ccc(-c2ccc3cc(-c4nn5cc(C(=O)N6CCC[C@@H](N)C6)cc(F)c5c4C)n(CC4CC4)c3n2)cn1` [Example 287, 5-(2-{6-[(3R)-3-Aminopiperidine-1-carbonyl]-4-fluoro-3-methylpyrazolo[1,5-a]pyridin-2-yl}-1-(cyclopropylmethyl)-1H-pyrrolo[2,3-b]pyridin-6-yl)-N-methylpyridine-2-carboxamide], with 5.89; and `Cc1c(-c2cc3ccc(-c4ccc(O)c(F)c4)nc3n2CC2CC2)nn2cc(C(=O)N3CC4CCC3[C@@H]4N)ccc12` (stereo partly drawn) [Example 67, ((7R)-7-Amino-2-azabicyclo[2.2.1]heptan-2-yl)(2-(1-(cyclopropylmethyl)-6-(3-fluoro-4-hydroxyphenyl)-1H-pyrrolo[2,3-b]pyridin-2-yl)-3-methylpyrazolo[1,5-a]pyridin-6-yl)methanone], with 7.64.
As for `Cc1c(-c2cc3cccc(C4CCN(C(=O)[C@H]5CCC[C@@H](O)C5)CC4)c3n2CC2CC2)nn2cc(C(=O)N3C[C@H](N)C[C@@H](F)C3)ccc12` [Example 448, ((3R,5R)-3-amino-5-fluoropiperidin-1-yl)(2-(1-(cyclopropylmethyl)-7-(1-((1S,3R)-3-hydroxycyclohexane-1-carbonyl)piperidin-4-yl)-1H-indol-2-yl)-3-methylpyrazolo[1,5-a]pyridin-6-yl)methanone], the negative logarithm of the IC50 (pIC50) was 7.15.
Take `CNC(=O)c1ccc(-c2ccc3cc(-c4nn5cc(C(=O)N6CC7CCC6[C@@H]7N)cc(F)c5c4C)n(CC4CC4)c3n2)cn1` (stereo partly drawn) [Example 264, 5-(2-{6-[(7R)-7-Amino-2-azabicyclo[2.2.1]heptane-2-carbonyl]-4-fluoro-3-methylpyrazolo[1,5-a]pyridin-2-yl}-1-(cyclopropylmethyl)-1H-pyrrolo[2,3-b]pyridin-6-yl)-N-methylpyridine-2-carboxamide]: the negative logarithm of the IC50 (pIC50) was 8.00.
Then `Cc1c(-c2cc3ccc(-c4ccn5c(C)nnc5c4)cc3n2CC2CC2)oc2cc(C(=O)N3CC4CCC3[C@@H]4N)ccc12` (stereo partly drawn) [Example 179, ((7R)-7-Amino-2-azabicyclo[2.2.1]heptan-2-yl)(2-(1-(cyclopropylmethyl)-6-(3-methyl-[1,2,4]triazolo[4,3-a]pyridin-7-yl)-1H-indol-2-yl)-3-methylbenzofuran-6-yl)methanone], with 7.46; and `Cc1c(-c2cc3ccc(N4CCC(N)CC4)cc3n2CC2CC2)oc2cc(C(=O)N3C[C@H](N)C[C@@H](F)C3)ccc12` [Example 202, ((3R,5R)-3-Amino-5-fluoropiperidin-1-yl)(2-(6-(4-aminopiperidin-1-yl)-1-(cyclopropylmethyl)-1H-indol-2-yl)-3-methylbenzofuran-6-yl)methanone], with 5.97.
Then `COc1cc(C(=O)N2C[C@H](N)C[C@@H](F)C2)cn2nc(-c3cc4cccnc4n3CC3CC3)c(C)c12` [Example 14, ((3R,5R)-3-Amino-5-fluoropiperidin-1-yl)(2-(1-(cyclopropylmethyl)-1H-pyrrolo[2,3-b]pyridin-2-yl)-4-methoxy-3-methylpyrazolo[1,5-a]pyridin-6-yl)methanone], with 6.04; and `Cc1c(-c2ccc3cc(-c4nn5cc(C(=O)N6C[C@H](N)C[C@@H](F)C6)ccc5c4C)n(CC4CC4)c3c2)cc(F)c2[nH]c(=O)ccc12` [Example 376, 6-(2-{6-[(3R,5R)-3-Amino-5-fluoropiperidine-1-carbonyl]-3-methylpyrazolo[1,5-a]pyridin-2-yl}-1-(cyclopropylmethyl)-1H-indol-6-yl)-8-fluoro-5-methyl-1,2-dihydroquinolin-2-one], with 6.92; and `COc1cc(C(=O)N2CC3CCC2[C@@H]3N)cn2nc(-c3cc4ccc(C5CC5)nc4n3CC3CC3)c(C)c12` (stereo partly drawn) [Example 6, ((7R)-7-Amino-2-azabicyclo[2.2.1]heptan-2-yl)(2-(6-cyclopropyl-1-(cyclopropylmethyl)-1H-pyrrolo[2,3-b]pyridin-2-yl)-4-methoxy-3-methylpyrazolo[1,5-a]pyridin-6-yl)methanone], with 7.49.
In the case of `Cc1c(-c2cc3cccc(C4CCN(C(=O)CCO)CC4)c3n2CC2CC2)nn2cc(C(=O)N3CCC[C@@H](N)C3)ccc12` [Example 437, (R)-1-(4-(2-(6-(3-aminopiperidine-1-carbonyl)-3-methylpyrazolo[1,5-a]pyridin-2-yl)-1-(cyclopropylmethyl)-1H-indol-7-yl)piperidin-1-yl)-3-hydroxypropan-1-one] it was 6.96; in that of `Cc1c(-c2cc3ccc(-c4ccn5c(C)nnc5c4)nc3n2CC2CC2)nn2cc(C(=O)N3CC4CCC3[C@@H]4N)cc(F)c12` (stereo partly drawn) [Example 43, ((7R)-7-Amino-2-azabicyclo[2.2.1]heptan-2-yl)(2-(1-(cyclopropylmethyl)-6-(3-methyl-[1,2,4]triazolo[4,3-a]pyridin-7-yl)-1H-pyrrolo[2,3-b]pyridin-2-yl)-4-fluoro-3-methylpyrazolo[1,5-a]pyridin-6-yl)methanone], 6.82.
For the compound `COc1cc(C(=O)N2C[C@H](N)C[C@@H](F)C2)cn2nc(-c3cc4ccc(-c5ccccc5C(N)=O)cc4n3CC3CC3)c(C)c12` [Example 223, 2-(2-{6-[(3R,5R)-3-Amino-5-fluoropiperidine-1-carbonyl]-4-methoxy-3-methylpyrazolo[1,5-a]pyridin-2-yl}-1-(cyclopropylmethyl)-1H-indol-6-yl)benzamide], the pIC50 is 6.89.
In the case of `Cc1c(-c2cc3ccc(N4CCC(S(C)(=O)=O)CC4)nc3n2CC2CC2)nn2cc(C(=O)N3CC4CCC3[C@@H]4N)ccc12` (stereo partly drawn) [Example 320, (7R)-2-{2-[1-(Cyclopropylmethyl)-6-(4-methanesulfonylpiperidin-1-yl)-1H-pyrrolo[2,3-b]pyridin-2-yl]-3-methylpyrazolo[1,5-a]pyridine-6-carbonyl}-2-azabicyclo[2.2.1]heptan-7-amine] it was 6.82.
